Legend:
[1] = test system: ECHORC (Watergrass (Calif.)); experiment: Postemergence weed control under flooded paddy conditions; assay type: in vivo, Echinochloa oryzoides; conditions: postemergence weeds, 3-4 weeks after treatment
Outline: (§1)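 Flood-water application, about 0.0313–0.500 kg/ha a.i. in aqueous/acetone 50/50 v/v; water depth 1.5–3 cm throughout. Weeds 3–5 cm, rice 1.5–2.5 leaf. Greenhouse; 0–9 visual rating vs control at 3–4 wk.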

[2] = test system: GLXMAW (Soybean, Williams); experiment: Postemergence herbicidal evaluation; assay type: in vivo, Glycine max, (L.) Merr. cv Williams
Outline: (§2)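 Visual 0-9 injury score (stand, vigor, malformation, size, chlorosis, appearance vs untreated) taken four to five weeks post-spray, averaged across repeat tests. Test plants about two weeks old; foliar spray of acetone/water (1:1) with 0.5% surfactant delivering ~0.0156-0.500 kg active/ha.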

[3] = test system: ABUTH (Velvetleaf); experiment: Preemergence herbicidal evaluation; assay type: in vivo, Abutilon theophrasti; conditions: rated 4-5 weeks after treatment
Outline: (§3)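 Sown cups got a single aqueous acetone spray of test compound (roughly 0.0156–0.500 kg/ha) before seedlings emerged. Evaluation, 4–5 weeks on, used a 0–9 visual scale covering plant stand, vigor, size, malformation, chlorosis and general appearance compared with controls.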

[4] = test system: SETVI (Foxtail, Green); experiment: Postemergence herbicidal evaluation; assay type: in vivo, Setaria viridis
Outline: as §2

[5] = test system: ZEAMX (Corn, Field); experiment: Postemergence herbicidal evaluation; assay type: in vivo, Zea mays
Outline: as §2

[6] = test system: IPOHE (Morningglory, Ivyleaf); experiment: Postemergence herbicidal evaluation; assay type: in vivo, Ipomoea hederacea
Outline: as §2

[7] = test system: CASOB (Sicklepod); experiment: Preemergence herbicidal evaluation; assay type: in vivo, Cassia obtusifolia; conditions: rated 4-5 weeks after treatment
Outline: as §3

[8] = test system: IPOHE (Morningglory, Ivyleaf); experiment: Preemergence herbicidal evaluation; assay type: in vivo, Ipomoea hederacea; conditions: rated 4-5 weeks after treatment
Outline: as §3

[9] = test system: CYPIR (Rice Flatsedge); experiment: Postemergence weed control under flooded paddy conditions; assay type: in vivo, Cyperus iria; conditions: postemergence weeds, 3-4 weeks after treatment
Outline: as §1

[10] = test system: ECHCG (Barnyardgrass); experiment: Preemergence herbicidal evaluation; assay type: in vivo, Echinochloa crus-galli; conditions: rated 4-5 weeks after treatment
Outline: as §3

[11] = test system: AMBEL (Ragweed, Common); experiment: Preemergence herbicidal evaluation; assay type: in vivo, Ambrosia artemisifolia; conditions: rated 4-5 weeks after treatment
Outline: as §3

[12] = test system: ABUTH (Velvetleaf); experiment: Postemergence herbicidal evaluation; assay type: in vivo, Abutilon theophrasti
Outline: as §2

[13] = test system: ECHORC (Watergrass (Calif.)); experiment: Preemergence weed control under flooded paddy conditions; assay type: in vivo, Echinochloa oryzoides; conditions: rated 3-4 weeks after treatment
Outline: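 Ratings on a 0-9 visual scale cover stand, vigor, malformation, size, chlorosis and overall appearance relative to a control, taken three to four weeks post-treatment. Application was into flood water over freshly sown silt loam at roughly 0.0313 to 0.500 kg/ha.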

[14] = test system: CYPSE (Flatsedge); experiment: as above; assay type: in vivo, Cyperus serotinus; conditions: rated 3-4 weeks after treatment
Outline: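 Using flooded silt loam (water 1.5 to 3 cm deep), seeds sown in the top 0.5 cm were exposed preemergence to compound pipetted into the flood at about 0.0313 to 0.500 kg/ha. Effects were scored 0-9 by eye three to four weeks later.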

SMILES: CCOC(=O)CN1CC(=O)N(CC(=O)OCC)C1=Nc1cc(-n2c(=O)cc(C(F)(F)F)n(C)c2=O)c(F)cc1Cl [Compound 34, 2-{{2-Chloro-5-[3,6-dihydro-3-methyl-2,6-dioxo-4-(trifluoromethyl)-1(2H)-pyrimidinyl]-4-fluoro-phenyl}imino}-4-oxo-1,3-imidazolidinediacetic acid, diethyl ester]
- Herbicidal rating ECHORC ([1]; rate 0.0313 kg/ha): 3.0
- Herbicidal rating ECHORC ([1]; rate 0.0625 kg/ha): 4.0
- Herbicidal rating ECHORC ([1]; rate 0.1250 kg/ha): 4.0
- Herbicidal rating ECHORC ([1]; rate 0.2500 kg/ha): 9.0
- Postemergence herbicidal rating GLXMAW ([2]; Rate 0.0158 kg/ha): 7.0
- Postemergence herbicidal rating GLXMAW ([2]; Rate 0.0315 kg/ha): 7.0
- Postemergence herbicidal rating GLXMAW ([2]; Rate 0.0630 kg/ha): 7.0
- Preemergence herbicidal rating ABUTH ([3]; rate 0.0313 kg/ha): 9.0
- Preemergence herbicidal rating ABUTH ([3]; rate 0.0625 kg/ha): 9.0
- Preemergence herbicidal rating ABUTH ([3]; rate 0.1250 kg/ha): 9.0
- Preemergence herbicidal rating ABUTH ([3]; rate 0.2500 kg/ha): 9.0
- Postemergence herbicidal rating SETVI ([4]; Rate 0.0158 kg/ha): 0.0
- Postemergence herbicidal rating SETVI ([4]; Rate 0.0315 kg/ha): 4.0
- Postemergence herbicidal rating SETVI ([4]; Rate 0.0630 kg/ha): 9.0
- Postemergence herbicidal rating ZEAMX ([5]; Rate 0.0158 kg/ha): 5.5
- Postemergence herbicidal rating ZEAMX ([5]; Rate 0.0315 kg/ha): 6.5
- Postemergence herbicidal rating ZEAMX ([5]; Rate 0.0630 kg/ha): 7.0
- Postemergence herbicidal rating IPOHE ([6]; Rate 0.0158 kg/ha): 9.0
- Postemergence herbicidal rating IPOHE ([6]; Rate 0.0315 kg/ha): 9.0
- Postemergence herbicidal rating IPOHE ([6]; Rate 0.0630 kg/ha): 9.0
- Preemergence herbicidal rating CASOB ([7]; rate 0.0313 kg/ha): 0.0
- Preemergence herbicidal rating CASOB ([7]; rate 0.0625 kg/ha): 0.0
- Preemergence herbicidal rating CASOB ([7]; rate 0.1250 kg/ha): 0.0
- Preemergence herbicidal rating CASOB ([7]; rate 0.2500 kg/ha): 0.0
- Preemergence herbicidal rating IPOHE ([8]; rate 0.0313 kg/ha): 0.0
- Preemergence herbicidal rating IPOHE ([8]; rate 0.0625 kg/ha): 3.0
- Preemergence herbicidal rating IPOHE ([8]; rate 0.1250 kg/ha): 3.0
- Preemergence herbicidal rating IPOHE ([8]; rate 0.2500 kg/ha): 9.0
- Herbicidal rating CYPIR ([9]; rate 0.0313 kg/ha): 0.0
- Herbicidal rating CYPIR ([9]; rate 0.0625 kg/ha): 0.0
- Herbicidal rating CYPIR ([9]; rate 0.1250 kg/ha): 0.0
- Herbicidal rating CYPIR ([9]; rate 0.2500 kg/ha): 0.0
- Preemergence herbicidal rating ECHCG ([10]; rate 0.0313 kg/ha): 0.0
- Preemergence herbicidal rating ECHCG ([10]; rate 0.0625 kg/ha): 0.0
- Preemergence herbicidal rating ECHCG ([10]; rate 0.1250 kg/ha): 2.0
- Preemergence herbicidal rating ECHCG ([10]; rate 0.2500 kg/ha): 5.0
- Preemergence herbicidal rating AMBEL ([11]; rate 0.0313 kg/ha): 0.0
- Preemergence herbicidal rating AMBEL ([11]; rate 0.0625 kg/ha): 4.0
- Preemergence herbicidal rating AMBEL ([11]; rate 0.1250 kg/ha): 4.0
- Preemergence herbicidal rating AMBEL ([11]; rate 0.2500 kg/ha): 7.0
- Postemergence herbicidal rating ABUTH ([12]; Rate 0.0158 kg/ha): 9.0
- Postemergence herbicidal rating ABUTH ([12]; Rate 0.0315 kg/ha): 9.0
- Postemergence herbicidal rating ABUTH ([12]; Rate 0.0630 kg/ha): 9.0
- Herbicidal rating ECHORC ([13]; 0.0313 kg/ha): 3.0
- Herbicidal rating ECHORC ([13]; 0.0625 kg/ha): 4.0
- Herbicidal rating ECHORC ([13]; 0.1250 kg/ha): 4.0
- Herbicidal rating ECHORC ([13]; 0.2500 kg/ha): 9.0
- Herbicidal rating CYPSE ([14]; 0.0313 kg/ha): 0.0
- Herbicidal rating CYPSE ([14]; 0.0625 kg/ha): 0.0
- Herbicidal rating CYPSE ([14]; 0.1250 kg/ha): 0.0
- Herbicidal rating CYPSE ([14]; 0.2500 kg/ha): 0.0
